Source: patent publication US12383158B2, “Detection of high-risk unstable atherosclerotic plaque” (The Heart Research Institute Ltd, priority 2018, dated 2025)

Columns and labels:
[1] = target: T1, MPO activity in atherosclerotic plaque (Mus musculus, UniProt P11247); conditions: for CNR of unstable plaque in the right carotid artery, 30 min after contrast injection / CNR of unstable plaque in the right carotid artery, 60 min after contrast injection: mean±SD
T1 sequence (P11247 139-718): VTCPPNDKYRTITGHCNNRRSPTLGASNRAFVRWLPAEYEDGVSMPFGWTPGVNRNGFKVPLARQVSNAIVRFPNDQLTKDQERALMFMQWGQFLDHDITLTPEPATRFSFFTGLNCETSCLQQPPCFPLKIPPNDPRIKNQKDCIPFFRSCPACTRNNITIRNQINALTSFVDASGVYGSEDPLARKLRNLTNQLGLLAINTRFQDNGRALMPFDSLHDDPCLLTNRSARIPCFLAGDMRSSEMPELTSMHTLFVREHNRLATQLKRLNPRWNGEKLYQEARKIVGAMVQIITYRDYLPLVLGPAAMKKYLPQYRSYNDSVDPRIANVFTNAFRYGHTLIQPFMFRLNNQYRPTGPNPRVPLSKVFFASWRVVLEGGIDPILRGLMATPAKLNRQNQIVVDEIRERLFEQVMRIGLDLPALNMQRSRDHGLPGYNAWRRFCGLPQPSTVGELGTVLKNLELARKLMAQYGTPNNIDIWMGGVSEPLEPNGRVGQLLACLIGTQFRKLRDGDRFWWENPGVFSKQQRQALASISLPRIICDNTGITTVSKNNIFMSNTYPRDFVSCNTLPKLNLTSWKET
Excerpt: Scheme of action of bis-5HT-DTPA-Gd (MPO-Gd) and magnetic resonance imaging protocol. A, In the presence of H2O2, MPO oxidises the 5-hydroxytryptamine moiety of MPO-Gd to a phenoxyl radical, which then can give rise to either an MPO-Gd dimer or multimer (not shown) to amplify the signal. The phenoxyl radical-containing MPO-Gd may also covalently bind to proteins. […] B, Mice were imaged under isoflurane anaesthesia. Initial acquisition involved a localiser, time-of-flight and T1-weighted turbo spin echo (T1-TSE) imaging. Approximately 30 μmin after acquisition of baseline images, MPO-Gd (0.3 mmol/kg) was injected intravenously via the tail vein. Consecutive T1-TSE images were then acquired for 60 μmin following contrast injection. Segmental analysis of MPO activity was assessed by calculating the ΔCNR (CNRpost-contrast−CNRpre-contrast) for unstable and stable plaque, and non-diseased arterial segments.
At 7 weeks following TS surgery, isoflurane-anaesthetised mice were imaged in the prone position using a 9.4T Bruker Biospec 94/20 Avance III system (Bruker, Ettlingen, Germany) with a 50-mm quadrature radiofrequency coil and respiratory-gated image acquisition. Mice were imaged before and after intravenous administration of 0.3 μmmol/kg of the MPO sensor bis-5-hydroxytryptamide-DTPA Gd (MPO-Gd) or DTPA-Gd (Magnevist, Bayer, Leverkusen, Germany) via a tail vein catheter. Prior to contrast injection, a flow-compensated 2D-FLASH time-of-flight (TOF) angiography in a coronal slice orientation was performed to assess intra-vessel (luminal) volume and geometry using a flow compensated 2D-GRE sequence (FLASH) for time-of-flight (TOF) angiography in an axial slice orientation with the following major parameters: TR 34 μms, TE 3 μms, slice thickness 0.5 μmm, interslice distance 0.35 μmm, 40 slices, matrix size 128×128, FOV 20×20 μmm, in-plane resolution 156×156 μm. This was followed by a T1-weighted fast spin echo (TurboRARE, T1-TSE) acquired in the same orientation with the following parameters: TR 1500 μms, TE 8.5 μms, ETL 8, slice thickness 1 μmm, FOV 20×20 μmm, matrix size 192×192, in-plane resolution 104×104 μm. This T1-TSE protocol was then repeated in a scan series covering a period of one hour following contrast injection to assess contrast agent inflow and retention. OsiriX (Version 7.0, Pixmeo, Switzerland) was used for image analysis. In T1-TSE images, separate regions of interest were assigned to the vessel wall, skeletal muscle (reference) and background (air). The contrast-to-noise ratio (CNR) was calculated as follows: CNR=(SIvessel wall−SIskeletal muscle)/SDbackground The mean CNRs of three consecutive slices in plaque with unstable phenotype and corresponding segments of the left carotid artery (plaque-free), in addition to 1-2 consecutive slices in the brachiocephalic trunk (stable plaque, SP), were calculated. Segmental enhancement attributable to MPO was assessed by calculating the ΔCNR=CNRpost-contrast−CNRpre-contrast.

[2] = mouse, in vivo
Description: Nuclear microscopy experiments were performed at the Centre for Ion Beam Applications at the National University of Singapore, as described previously.6 Briefly, the samples were mounted onto a 3-axis stage within a scattering chamber maintained at <5×10−6 μmbar. A collimated proton beam (H+) at 2.1 MeV was generated using a 3.5 MV Singletron accelerator and kept incident onto the samples inclined at 45 degrees to the incident beam. The broad incident ion beam was focused down to a spot size of 1 μm and scanned across the region of interest. […]
PIXE data was collected using a Si(Li) detector placed at 20 μmm from the samples to the Si(Li) crystal face. RBS and STIM data were measured by a passivated implanted planar silicon (PIPS) detector. […]
Scanning transmission ion microscopy provides structural maps based on the energy lost by the protons as they pass through the relatively thin organic samples with thicknesses of 30 μm or less, enabling structural identification without fixing or staining. Trace elemental mapping was performed using particle-induced X-ray emission, which simultaneously provides multiple elements with high quantitative accuracy and sensitivity to a few parts per million in biological materials. […]

[3] = TS Apoe−/− mice, 0.3 mmol/kg i.v.

SMILES | enhancement of the right carotid artery in TS Mpo−/−Apoe−/− mice ([1]; 60 min, compared with Apoe−/− mice) | enhancement of the brachiocephalic artery (stable plaque) [1, 3] | enhancement of the non-diseased vessel wall of the left carotid artery [1, 3] | CNR of unstable plaque in the right carotid artery, 30 min after contrast injection [1, 3] | CNR of unstable plaque in the right carotid artery, 60 min after contrast injection [1, 3] | period within which the enhancing material is washed out/eliminated from Segment I ([1]; mouse, in vivo) [weeks] | plaque specificity of enhancement 1 week after TS surgery ([1]; unstable plaque (Segment I) vs stable plaque (brachiocephalic artery)) | Gd content of unstable plaque [2]
O=C([O-])CN(CCN(CC(=O)[O-])CC(=O)NCCc1c[nH]c2ccc(O)cc12)CCN(CC(=O)[O-])CC(=O)NCCc1c[nH]c2ccc(O)cc12.[Gd+3] [MPO-Gd, bis-5-hydroxytryptamide-DTPA Gd] | attenuated enhancement | did not result in significant sustained enhancement | no significant enhancement | 23.7±6.8 | 25±6.4 | < 2 | seen only in unstable plaque | significant accumulation of Gd
CNC[C@H](O)[C@@H](O)[C@H](O)[C@H](O)CO.CNC[C@H](O)[C@@H](O)[C@H](O)[C@H](O)CO.O=C([O-])CN(CCN(CC(=O)[O-])CC(=O)O)CCN(CC(=O)[O-])CC(=O)O.[Gd+3] [DTPA-Gd] | – | – | – | 19.2±7.2 | 13.4±3.6 | – | – | –
